Reference: publication PMC7265341, “Quantifying CDK inhibitor selectivity in live cells” (Nature Communications, 2020)

What was measured:
Details in all cases: 10µM
CDK14/Cyclin Y = CDK14/Cyclin Y (Homo sapiens, UniProt O94921); experiment: NanoBRET live-cell target engagement, CDK14-NanoLuc/Cyclin Y in HEK-293; format: binding
CDK4/Cyclin D1 = CDK4/Cyclin D1 (Homo sapiens, UniProt P11802); experiment: NanoBRET live-cell target engagement, NanoLuc-CDK4/Cyclin D1 in HEK-293; format: binding
CDK15/Cyclin Y = CDK15/Cyclin Y (Homo sapiens, UniProt Q96Q40); experiment: NanoBRET live-cell target engagement, NanoLuc-CDK15/Cyclin Y in HEK-293; format: binding
CDK7 = CDK7 (Homo sapiens, UniProt P50613); experiment: NanoBRET live-cell target engagement, NanoLuc-CDK7 in HEK-293; format: binding
CDK9/Cyclin K = CDK9/Cyclin K (Homo sapiens, UniProt P50750); experiment: NanoBRET live-cell target engagement, NanoLuc-CDK9/Cyclin K in HEK-293; format: binding
CDK1/Cyclin E1 = CDK1/Cyclin E1 (Homo sapiens, UniProt P06493); experiment: NanoBRET live-cell target engagement, CDK1-NanoLuc/Cyclin E1 in HEK-293; format: binding
CDK2/Cyclin E1 = CDK2/Cyclin E1 (Homo sapiens, UniProt P24941); experiment: NanoBRET live-cell target engagement, CDK2-NanoLuc/Cyclin E1 in HEK-293; format: binding
CDK6/Cyclin D1 = CDK6/Cyclin D1 (Homo sapiens, UniProt Q00534); experiment: NanoBRET live-cell target engagement, NanoLuc-CDK6/Cyclin D1 in HEK-293; format: binding
CDK19/Cyclin C = CDK19/Cyclin C (Homo sapiens, UniProt Q9BWU1); experiment: NanoBRET live-cell target engagement, NanoLuc-CDK19/Cyclin C in HEK-293
CDK3/Cyclin E1 = CDK3/Cyclin E1 (Homo sapiens, UniProt Q00526); experiment: NanoBRET live-cell target engagement, CDK3-NanoLuc/Cyclin E1 in HEK-293; format: binding
CDK8/Cyclin C = CDK8/Cyclin C (Homo sapiens, UniProt P49336); experiment: NanoBRET live-cell target engagement, NanoLuc-CDK8/Cyclin C in HEK-293; format: binding
CDK5/CDK5R1 = CDK5/CDK5R1 (Homo sapiens, UniProt Q00535); experiment: NanoBRET live-cell target engagement, CDK5-NanoLuc/CDK5R1 in HEK-293; format: binding
CDK17/Cyclin Y = CDK17/Cyclin Y (Homo sapiens, UniProt Q00537); experiment: NanoBRET live-cell target engagement, CDK17-NanoLuc/Cyclin Y in HEK-293; format: binding
CDK12/Cyclin K = CDK12/Cyclin K (Homo sapiens, UniProt Q9NYV4); experiment: NanoBRET live-cell target engagement, CDK12-NanoLuc/Cyclin K in HEK-293; format: binding
CDK18/Cyclin Y = CDK18/Cyclin Y (Homo sapiens, UniProt Q07002); experiment: NanoBRET live-cell target engagement, CDK18-NanoLuc/Cyclin Y in HEK-293; format: binding
CDK10/Cyclin L2 = CDK10/Cyclin L2 (Homo sapiens, UniProt Q15131); experiment: NanoBRET live-cell target engagement, CDK10-NanoLuc/Cyclin L2 in HEK-293
CDK11B/Cyclin L2 = CDK11B/Cyclin L2 (Homo sapiens, UniProt P21127); experiment: NanoBRET live-cell target engagement, CDK11B-NanoLuc/Cyclin L2 in HEK-293; format: binding
CDK11A/Cyclin L2 = target: T1, CDK11A/Cyclin L2 (Homo sapiens, UniProt Q9UQ88); experiment: NanoBRET live-cell target engagement, CDK11A-NanoLuc/Cyclin L2 in HEK-293; format: binding
T1 sequence (Q9UQ88 1-783): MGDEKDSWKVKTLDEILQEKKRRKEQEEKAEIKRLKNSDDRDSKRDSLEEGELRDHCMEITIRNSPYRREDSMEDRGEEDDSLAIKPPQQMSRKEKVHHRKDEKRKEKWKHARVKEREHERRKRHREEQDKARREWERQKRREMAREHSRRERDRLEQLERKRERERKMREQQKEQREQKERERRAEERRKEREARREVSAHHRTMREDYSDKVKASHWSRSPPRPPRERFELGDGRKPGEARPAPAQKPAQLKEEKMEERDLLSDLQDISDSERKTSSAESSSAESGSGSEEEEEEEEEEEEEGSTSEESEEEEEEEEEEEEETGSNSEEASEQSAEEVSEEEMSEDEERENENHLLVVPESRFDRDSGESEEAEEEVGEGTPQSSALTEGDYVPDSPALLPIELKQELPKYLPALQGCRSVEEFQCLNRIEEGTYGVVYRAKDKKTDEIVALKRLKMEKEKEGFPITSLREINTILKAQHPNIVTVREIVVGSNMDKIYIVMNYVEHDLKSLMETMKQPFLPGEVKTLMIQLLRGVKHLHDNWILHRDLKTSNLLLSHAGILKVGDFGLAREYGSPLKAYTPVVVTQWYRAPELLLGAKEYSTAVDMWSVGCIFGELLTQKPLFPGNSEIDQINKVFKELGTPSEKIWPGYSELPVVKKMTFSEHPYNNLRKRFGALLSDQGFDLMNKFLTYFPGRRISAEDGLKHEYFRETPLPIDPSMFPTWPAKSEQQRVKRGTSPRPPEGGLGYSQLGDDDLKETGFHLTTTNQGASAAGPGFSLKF

CDK13/Cyclin K = CDK13/Cyclin K (Homo sapiens, UniProt Q14004); experiment: NanoBRET live-cell target engagement, CDK13-NanoLuc/Cyclin K in HEK-293; format: binding
CDK20/Cyclin H = CDK20/Cyclin H (Homo sapiens, UniProt Q8IZL9); experiment: NanoBRET live-cell target engagement, NanoLuc-CDK20/Cyclin H in HEK-293; format: binding
CDK16/Cyclin Y = CDK16/Cyclin Y (Homo sapiens, UniProt Q00536); experiment: NanoBRET live-cell target engagement, CDK16-NanoLuc/Cyclin Y in HEK-293; format: binding

CDK4/Cyclin D1, sequence (P11802 whole entry): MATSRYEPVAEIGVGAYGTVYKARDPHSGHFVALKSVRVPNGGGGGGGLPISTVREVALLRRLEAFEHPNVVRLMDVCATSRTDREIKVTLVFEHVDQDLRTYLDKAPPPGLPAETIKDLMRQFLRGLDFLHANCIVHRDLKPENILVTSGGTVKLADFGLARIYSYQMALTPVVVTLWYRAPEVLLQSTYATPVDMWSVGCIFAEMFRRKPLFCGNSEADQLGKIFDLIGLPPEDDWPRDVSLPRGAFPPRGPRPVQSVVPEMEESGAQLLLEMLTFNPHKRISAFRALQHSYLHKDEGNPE
CDK4/Cyclin D1, sequence (P24385 whole entry partner): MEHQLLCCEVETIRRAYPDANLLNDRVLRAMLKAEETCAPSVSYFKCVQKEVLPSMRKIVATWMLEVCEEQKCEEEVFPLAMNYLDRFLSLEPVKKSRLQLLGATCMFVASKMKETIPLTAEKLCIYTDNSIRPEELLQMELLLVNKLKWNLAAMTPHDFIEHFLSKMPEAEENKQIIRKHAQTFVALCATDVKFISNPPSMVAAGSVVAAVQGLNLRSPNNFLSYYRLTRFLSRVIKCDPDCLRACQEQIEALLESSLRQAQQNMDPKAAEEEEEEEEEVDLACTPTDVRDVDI
CDK3/Cyclin E1, sequence (Q00526 whole entry): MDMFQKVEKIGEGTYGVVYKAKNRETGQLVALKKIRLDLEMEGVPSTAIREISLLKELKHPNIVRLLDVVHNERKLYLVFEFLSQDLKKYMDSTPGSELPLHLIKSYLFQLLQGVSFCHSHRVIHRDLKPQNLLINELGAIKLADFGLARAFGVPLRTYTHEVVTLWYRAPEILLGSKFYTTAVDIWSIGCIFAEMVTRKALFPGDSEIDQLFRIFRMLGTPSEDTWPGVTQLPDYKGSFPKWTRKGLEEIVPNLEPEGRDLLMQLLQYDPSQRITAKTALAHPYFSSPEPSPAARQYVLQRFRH
CDK3/Cyclin E1, sequence (P24864 whole entry partner): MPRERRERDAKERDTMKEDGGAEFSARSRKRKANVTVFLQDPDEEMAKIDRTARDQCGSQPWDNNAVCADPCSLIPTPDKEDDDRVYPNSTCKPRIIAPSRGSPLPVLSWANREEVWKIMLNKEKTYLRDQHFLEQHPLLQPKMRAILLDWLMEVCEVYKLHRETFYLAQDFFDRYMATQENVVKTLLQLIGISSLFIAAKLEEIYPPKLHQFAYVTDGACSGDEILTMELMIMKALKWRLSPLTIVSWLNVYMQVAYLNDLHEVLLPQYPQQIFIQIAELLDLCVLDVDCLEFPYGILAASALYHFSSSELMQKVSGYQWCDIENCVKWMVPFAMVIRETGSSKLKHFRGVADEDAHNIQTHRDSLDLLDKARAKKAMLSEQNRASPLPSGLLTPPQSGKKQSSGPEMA
CDK5/CDK5R1, sequence (Q00535 whole entry): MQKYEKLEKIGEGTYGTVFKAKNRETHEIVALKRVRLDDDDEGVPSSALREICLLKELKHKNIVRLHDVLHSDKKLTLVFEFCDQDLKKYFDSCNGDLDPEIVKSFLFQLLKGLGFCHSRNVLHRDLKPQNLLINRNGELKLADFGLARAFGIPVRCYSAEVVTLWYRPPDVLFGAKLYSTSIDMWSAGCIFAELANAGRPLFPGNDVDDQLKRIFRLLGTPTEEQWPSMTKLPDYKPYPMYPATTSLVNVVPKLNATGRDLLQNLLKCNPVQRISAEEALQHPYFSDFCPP
CDK5/CDK5R1, sequence (Q15078 whole entry partner): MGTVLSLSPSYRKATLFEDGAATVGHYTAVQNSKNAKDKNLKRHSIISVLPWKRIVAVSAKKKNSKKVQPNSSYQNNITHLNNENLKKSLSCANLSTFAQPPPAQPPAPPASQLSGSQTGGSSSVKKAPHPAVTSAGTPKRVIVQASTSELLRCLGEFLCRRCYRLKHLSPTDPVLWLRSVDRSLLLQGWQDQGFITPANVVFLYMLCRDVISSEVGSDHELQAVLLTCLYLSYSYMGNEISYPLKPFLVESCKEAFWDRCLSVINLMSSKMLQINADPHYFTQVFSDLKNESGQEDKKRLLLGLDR
CDK13/Cyclin K, sequence (O75909 whole entry): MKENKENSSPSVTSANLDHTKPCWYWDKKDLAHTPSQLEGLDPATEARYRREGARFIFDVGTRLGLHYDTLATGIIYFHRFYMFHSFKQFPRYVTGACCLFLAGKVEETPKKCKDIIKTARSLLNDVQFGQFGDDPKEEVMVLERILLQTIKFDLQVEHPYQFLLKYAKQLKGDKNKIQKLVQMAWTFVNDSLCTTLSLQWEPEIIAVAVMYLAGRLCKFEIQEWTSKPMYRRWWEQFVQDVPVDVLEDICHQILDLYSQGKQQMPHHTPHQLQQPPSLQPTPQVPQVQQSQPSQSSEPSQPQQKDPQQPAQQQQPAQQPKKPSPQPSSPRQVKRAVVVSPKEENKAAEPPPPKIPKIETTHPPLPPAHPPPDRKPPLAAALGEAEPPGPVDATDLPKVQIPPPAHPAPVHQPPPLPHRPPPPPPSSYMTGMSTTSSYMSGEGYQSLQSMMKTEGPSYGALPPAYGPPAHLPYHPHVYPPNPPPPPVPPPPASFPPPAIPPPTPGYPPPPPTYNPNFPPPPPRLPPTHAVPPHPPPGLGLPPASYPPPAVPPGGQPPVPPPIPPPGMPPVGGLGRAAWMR
CDK13/Cyclin K, sequence (Q14004 other isoform, or with tags, fused parts or gaps): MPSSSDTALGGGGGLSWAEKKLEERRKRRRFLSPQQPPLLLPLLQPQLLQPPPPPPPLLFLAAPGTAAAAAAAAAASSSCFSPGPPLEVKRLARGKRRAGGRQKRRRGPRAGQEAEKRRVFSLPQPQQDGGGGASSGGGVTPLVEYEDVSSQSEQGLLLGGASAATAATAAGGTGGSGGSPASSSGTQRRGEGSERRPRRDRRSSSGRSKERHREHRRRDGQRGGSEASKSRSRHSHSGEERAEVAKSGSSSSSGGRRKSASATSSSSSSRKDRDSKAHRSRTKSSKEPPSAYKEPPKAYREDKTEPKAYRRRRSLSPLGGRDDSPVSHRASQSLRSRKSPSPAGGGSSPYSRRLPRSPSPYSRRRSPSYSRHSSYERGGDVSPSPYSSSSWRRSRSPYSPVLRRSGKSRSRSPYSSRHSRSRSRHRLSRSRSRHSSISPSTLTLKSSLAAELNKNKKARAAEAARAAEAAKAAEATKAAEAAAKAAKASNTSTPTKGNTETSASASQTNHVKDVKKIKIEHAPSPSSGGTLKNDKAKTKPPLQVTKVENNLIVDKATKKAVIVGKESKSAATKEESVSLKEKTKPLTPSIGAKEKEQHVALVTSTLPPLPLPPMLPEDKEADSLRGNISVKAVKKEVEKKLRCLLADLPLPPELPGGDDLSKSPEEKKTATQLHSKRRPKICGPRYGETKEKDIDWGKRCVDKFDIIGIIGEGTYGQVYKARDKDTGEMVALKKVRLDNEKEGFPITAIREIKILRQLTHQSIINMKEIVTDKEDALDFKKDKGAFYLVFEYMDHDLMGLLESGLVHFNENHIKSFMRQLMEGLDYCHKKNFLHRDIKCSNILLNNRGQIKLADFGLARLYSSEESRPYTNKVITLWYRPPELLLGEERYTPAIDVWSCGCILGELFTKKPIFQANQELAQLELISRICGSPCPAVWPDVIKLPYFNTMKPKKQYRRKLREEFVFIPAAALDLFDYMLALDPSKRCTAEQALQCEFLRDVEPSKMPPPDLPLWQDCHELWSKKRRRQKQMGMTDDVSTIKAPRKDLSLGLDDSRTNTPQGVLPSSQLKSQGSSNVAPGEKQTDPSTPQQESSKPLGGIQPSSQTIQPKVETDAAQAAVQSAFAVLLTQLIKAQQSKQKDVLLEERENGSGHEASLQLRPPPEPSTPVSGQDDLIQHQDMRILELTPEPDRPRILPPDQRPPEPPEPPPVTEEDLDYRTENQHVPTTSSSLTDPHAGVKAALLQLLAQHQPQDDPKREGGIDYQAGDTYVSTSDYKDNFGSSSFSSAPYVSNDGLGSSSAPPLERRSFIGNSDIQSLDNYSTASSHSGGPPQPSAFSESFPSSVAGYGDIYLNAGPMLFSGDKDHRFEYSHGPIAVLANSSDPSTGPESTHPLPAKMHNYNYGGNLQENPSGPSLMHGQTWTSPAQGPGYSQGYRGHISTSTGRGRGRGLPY
CDK17/Cyclin Y, sequence (Q00537 whole entry): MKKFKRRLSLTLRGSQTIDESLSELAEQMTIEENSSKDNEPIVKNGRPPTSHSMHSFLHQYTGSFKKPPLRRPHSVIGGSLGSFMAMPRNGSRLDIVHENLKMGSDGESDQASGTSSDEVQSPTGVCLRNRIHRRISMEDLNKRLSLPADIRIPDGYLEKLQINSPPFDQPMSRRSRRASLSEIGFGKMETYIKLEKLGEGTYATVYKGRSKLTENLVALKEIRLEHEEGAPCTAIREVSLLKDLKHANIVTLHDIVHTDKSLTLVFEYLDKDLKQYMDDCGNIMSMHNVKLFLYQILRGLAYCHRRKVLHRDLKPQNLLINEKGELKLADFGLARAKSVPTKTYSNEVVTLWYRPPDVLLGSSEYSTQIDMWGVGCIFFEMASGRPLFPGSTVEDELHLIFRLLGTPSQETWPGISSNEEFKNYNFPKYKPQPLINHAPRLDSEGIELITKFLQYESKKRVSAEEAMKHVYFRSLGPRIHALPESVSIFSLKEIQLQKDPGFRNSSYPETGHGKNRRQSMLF
CDK17/Cyclin Y, sequence (Q8ND76 whole entry partner): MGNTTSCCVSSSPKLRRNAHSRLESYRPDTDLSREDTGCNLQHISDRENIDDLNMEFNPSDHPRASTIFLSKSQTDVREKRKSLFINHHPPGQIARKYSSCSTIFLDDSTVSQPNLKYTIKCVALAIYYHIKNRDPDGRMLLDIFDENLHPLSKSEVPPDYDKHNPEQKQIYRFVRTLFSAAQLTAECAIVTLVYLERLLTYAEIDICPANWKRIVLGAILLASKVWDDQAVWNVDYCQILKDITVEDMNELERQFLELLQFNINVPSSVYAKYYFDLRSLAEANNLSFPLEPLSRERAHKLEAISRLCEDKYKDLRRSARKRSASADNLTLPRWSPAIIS

In the case of O=C1NCCc2[nH]c(-c3ccncc3)cc21 [PHA-767491], the “CDK14/Y Inhibition at 10µM (%)” value (CDK14/Cyclin Y; average of experiments) is reported as 13.9%, the “CDK14/Y Inhibition at 10µM (%)” value (CDK14/Cyclin Y; independent experiment 1) is reported as 16.7% and the “CDK14/Y Inhibition at 10µM (%)” value (CDK14/Cyclin Y; independent experiment 2) is reported as 11.1%. For the same compound, the “CDK4/D1 Inhibition at 10µM (%)” value (CDK4/Cyclin D1; average of experiments) was 21.3%, the “CDK4/D1 Inhibition at 10µM (%)” value (CDK4/Cyclin D1; independent experiment 1) was 22.1% and the “CDK4/D1 Inhibition at 10µM (%)” value (CDK4/Cyclin D1; independent experiment 2) was 20.6%. For the same compound, the “CDK15/Y Inhibition at 10µM (%)” value (CDK15/Cyclin Y; average of experiments) was -2.1%, the “CDK15/Y Inhibition at 10µM (%)” value (CDK15/Cyclin Y; independent experiment 1) was 6.2% and the “CDK15/Y Inhibition at 10µM (%)” value (CDK15/Cyclin Y; independent experiment 2) was -10.5%. For the same compound, the “CDK7 Inhibition at 10µM (%)” value (CDK7; average of experiments) was 26.3%, the “CDK7 Inhibition at 10µM (%)” value (CDK7; independent experiment 1) was 26.2% and the “CDK7 Inhibition at 10µM (%)” value (CDK7; independent experiment 2) was 26.4%. For the same compound, the “CDK9/K Inhibition at 10µM (%)” value (CDK9/Cyclin K; average of experiments) was 95.5%, the “CDK9/K Inhibition at 10µM (%)” value (CDK9/Cyclin K; independent experiment 1) was 96.2% and the “CDK9/K Inhibition at 10µM (%)” value (CDK9/Cyclin K; independent experiment 2) was 94.7%. The “CDK1/E1 Inhibition at 10µM (%)” value (CDK1/Cyclin E1; average of experiments) was 20.9%, the “CDK1/E1 Inhibition at 10µM (%)” value (CDK1/Cyclin E1; independent experiment 1) was 21.6% and the “CDK1/E1 Inhibition at 10µM (%)” value (CDK1/Cyclin E1; independent experiment 2) was 20.1%. For the same compound, the “CDK2/E1 Inhibition at 10µM (%)” value (CDK2/Cyclin E1; average of experiments) was 26.7%, the “CDK2/E1 Inhibition at 10µM (%)” value (CDK2/Cyclin E1; independent experiment 1) was 26.7% and the “CDK2/E1 Inhibition at 10µM (%)” value (CDK2/Cyclin E1; independent experiment 2) was 26.6%. The “CDK6/D1 Inhibition at 10µM (%)” value (CDK6/Cyclin D1; average of experiments) was 19.5%, the “CDK6/D1 Inhibition at 10µM (%)” value (CDK6/Cyclin D1; independent experiment 1) was 12.0% and the “CDK6/D1 Inhibition at 10µM (%)” value (CDK6/Cyclin D1; independent experiment 2) was 27.0%. The “CDK19/C Inhibition at 10µM (%)” value (CDK19/Cyclin C; average of experiments) was 90.8%, the “CDK19/C Inhibition at 10µM (%)” value (CDK19/Cyclin C; independent experiment 1) was 91.1% and the “CDK19/C Inhibition at 10µM (%)” value (CDK19/Cyclin C; independent experiment 2) was 90.5%. The “CDK3/E1 Inhibition at 10µM (%)” value (CDK3/Cyclin E1; average of experiments) was 31.6%, the “CDK3/E1 Inhibition at 10µM (%)” value (CDK3/Cyclin E1; independent experiment 1) was 30.4% and the “CDK3/E1 Inhibition at 10µM (%)” value (CDK3/Cyclin E1; independent experiment 2) was 32.8%. The “CDK8/C Inhibition at 10µM (%)” value (CDK8/Cyclin C; average of experiments) was 97.7%, the “CDK8/C Inhibition at 10µM (%)” value (CDK8/Cyclin C; independent experiment 1) was 98.5% and the “CDK8/C Inhibition at 10µM (%)” value (CDK8/Cyclin C; independent experiment 2) was 96.9%. For the same compound, the “CDK5/CDK5R1 Inhibition at 10µM (%)” value (CDK5/CDK5R1; average of experiments) was 37.1%, the “CDK5/CDK5R1 Inhibition at 10µM (%)” value (CDK5/CDK5R1; independent experiment 1) was 38.6% and the “CDK5/CDK5R1 Inhibition at 10µM (%)” value (CDK5/CDK5R1; independent experiment 2) was 35.7%. For the same compound, the “CDK17/Y Inhibition at 10µM (%)” value (CDK17/Cyclin Y; average of experiments) was 24.8%, the “CDK17/Y Inhibition at 10µM (%)” value (CDK17/Cyclin Y; independent experiment 1) was 31.6% and the “CDK17/Y Inhibition at 10µM (%)” value (CDK17/Cyclin Y; independent experiment 2) was 18.1%. For the same compound, the “CDK12/K Inhibition at 10µM (%)” value (CDK12/Cyclin K; average of experiments) was 18.3%, the “CDK12/K Inhibition at 10µM (%)” value (CDK12/Cyclin K; independent experiment 1) was 19.8% and the “CDK12/K Inhibition at 10µM (%)” value (CDK12/Cyclin K; independent experiment 2) was 16.8%. The “CDK18/Y Inhibition at 10µM (%)” value (CDK18/Cyclin Y; average of experiments) was 28.3%, the “CDK18/Y Inhibition at 10µM (%)” value (CDK18/Cyclin Y; independent experiment 1) was 21.8% and the “CDK18/Y Inhibition at 10µM (%)” value (CDK18/Cyclin Y; independent experiment 2) was 34.7%. For the same compound, the “CDK10/L2 Inhibition at 10µM (%)” value (CDK10/Cyclin L2; average of experiments) was 11.0%, the “CDK10/L2 Inhibition at 10µM (%)” value (CDK10/Cyclin L2; independent experiment 1) was 18.5% and the “CDK10/L2 Inhibition at 10µM (%)” value (CDK10/Cyclin L2; independent experiment 2) was 3.5%. The “CDK11b/L2 Inhibition at 10µM (%)” value (CDK11B/Cyclin L2; average of experiments) was 42.2%, the “CDK11b/L2 Inhibition at 10µM (%)” value (CDK11B/Cyclin L2; independent experiment 1) was 43.3% and the “CDK11b/L2 Inhibition at 10µM (%)” value (CDK11B/Cyclin L2; independent experiment 2) was 41.0%. For the same compound, the “CDK11a/L2 Inhibition at 10µM (%)” value (CDK11A/Cyclin L2; average of experiments) was 24.0%, the “CDK11a/L2 Inhibition at 10µM (%)” value (CDK11A/Cyclin L2; independent experiment 1) was 26.5% and the “CDK11a/L2 Inhibition at 10µM (%)” value (CDK11A/Cyclin L2; independent experiment 2) was 21.5%. The “CDK13/K Inhibition at 10µM (%)” value (CDK13/Cyclin K; average of experiments) was 11.6%, the “CDK13/K Inhibition at 10µM (%)” value (CDK13/Cyclin K; independent experiment 1) was 14.1% and the “CDK13/K Inhibition at 10µM (%)” value (CDK13/Cyclin K; independent experiment 2) was 9.2%. For the same compound, the “CDK20/H Inhibition at 10µM (%)” value (CDK20/Cyclin H; independent experiment 1) was 1.2%, the “CDK20/H Inhibition at 10µM (%)” value (CDK20/Cyclin H; independent experiment 2) was 0.755% and the “CDK16/Y Inhibition at 10µM (%)” value (CDK16/Cyclin Y; independent experiment 1) was 25.1%. The “CDK16/Y Inhibition at 10µM (%)” value (CDK16/Cyclin Y; independent experiment 2) was 16.6%.
